Assay [1] deals with PMM2-CDG patients. As to the kind of experiment: Modified Brief Ataxia Rating Scale (BARS) in patients on epalrestat. Type of assay: in vivo, human. The source says: (§1) The primary objective of the study was to assess the efficacy and safety of epalrestat treatment in 3 PMM2-CDG pediatric subjects prior to a planned Phase III clinical trial (Oral epalrestat therapy in Pediatric Subjects with PMM2-CDG, NCT04925960). The secondary objective was to assess the ability of epalrestat to improve clinically relevant aspects of PMM2-CDG such as increased urine polyols (sorbitol, mannitol), abnormal glycosylation (carbohydrate deficient transferrin), abnormal coagulation (ATIII=antithrombin III), impaired liver function (ALT=Alanine Transaminase, AST=Aspartate Transaminase), neurologic function (Brief Ataxia Rating Scale=BARS), severity of phenotype (Nijmegen Pediatric CDG Rating Scale=NPCRS). The ability of epalrestat to inhibit polyol production was monitored by evaluating urine polyol levels (sorbitol, mannitol), which are elevated in PMM2-CDG. Next, carbohydrate deficient transferrin, which is abnormal in PMM2-CDG, was evaluated in order to assess improvement of glycosylation following epalrestat treatment. CDT mono-oligo/dioligo ratio and a-oligo/dioligo ratio are used to evaluate glycosylation abnormalities. Transferrin normally occurs with two glycan chains (di-oligo). In the case of glycosylation abnormalities, glycan chains are missing (A-oligo transferrin has no glycan chains, mono-oligo has one glycan chain, di-oligo has two glycan chains). The higher ratio of a-oligo/di-oligo and mono-oligo/di-oligo indicate glycosylation abnormalities are present. Therefore, improvement in a-oligo/di-oligo and mono-oligo/di-oligo ratios can be used to monitor improvement or worsening of glycosylation status. Changes in the liver enzymes AST, ALT, which are frequently elevated in PMM2-CDG, were monitored both as part of a safety study and as part of monitoring clinical improvement in coagulation. Neurologic improvement was assessed by modified BARS scores in 2 patients (3rd patient was not eligible for the test due to age at the start of the trial). NPCRS was assessed at every visit to assess changes in the severity of the patients' phenotype. Additionally, the frequency of adverse events, changes in vital signs, complete blood count, and changes in BMI were monitored.
(§2) Two patients were started on epalrestat on single patient investigational new drug (IND) (P5 IRB: 19-010017; IND #145262; P6 Protocol PMM2-CDG-001/A). Epalrestat was initiated on the parents' own initiative in the third patient (P7). Two patients were in their second year of epalrestat treatment, while the third, was in the 3rd year of treatment. Physical, neurological, and biochemical examinations were performed in 3 PMM2-CDG patients at baseline, and at every three months after the start of the epalrestat treatment. Patients underwent NPCRS phenotype severity assessment and biological sampling at every visit. Epalrestat (Ono Pharmaceuticals, Osaka, Japan) was taken orally 3 times per day (TID) before meals in a divided dose, with dosage escalation throughout the treatment. The pharmacological profile of epalrestat was as described elsewhere (Ligezka et al, Ann. Neurol., 90(6):887-900 (2021)). The starting dosage in P5 and P6 was 0.8 mg/kg/day, while P7 was started on 0.5 mg/kg/day due to their young age. P7 dosage was increased to 0.8 mg/day after a month, once safety was established. Blood and urine samples were collected routinely. Urine polyols, carbohydrate deficient transferrin (CDT), anti-thrombin III (ATIII), liver enzymes (ALT, AST), and complete blood count (CBC) were performed. Modified Brief Ataxia Rating Scale was used to assess ataxia in the 2 patients (P5, P6; P7 was not eligible for the test due to age). The modified BARS scale included Archimedes spiral test, but not the abnormalities of the ocular pursuit system and the scale range was 0-54. Goal attainment scale (GAS) was administered as described per study protocol (ClinicalTrials.gov Identifier: NCT04199000). […]

For assay [2], the system named is PMM2-CDG patients. Kind of assay: Anti-thrombin III (ATIII) in patients on epalrestat. Type of assay: in vivo, human. The conditions noted are these: for AT III: C: 0.80-1.30.
Description: as §1
as §2, with “routinely.” for “routinely. Urine polyols, carbohydrate deficient transferrin (CDT), anti-thrombin III (ATIII), liver enzymes (ALT, AST), and complete blood count (CBC) were performed. Modified Brief Ataxia Rating Scale was used to assess ataxia in the 2 patients (P5, P6; P7 was not eligible for the test due to age). The modified BARS scale included Archimedes spiral test, but not the abnormalities of the ocular pursuit system and the scale range was 0-54. Goal attainment scale (GAS) was administered as described per study protocol (ClinicalTrials.gov Identifier: NCT04199000).”

Take `CC(/C=C1\SC(=S)N(CC(=O)O)C1=O)=C\c1ccccc1` [epalrestat]: the “Modified BARS (max 54)” value in the assay on PMM2-CDG patients [1] (P5, 12 months, 1.5 mg/kg day, baseline 39) is 29; with PMM2-CDG patients [1] (P5, 24 months, 2 mg/kg day, baseline 39), 33; in the assay on PMM2-CDG patients [1] (P5, 28 months, 3 mg/kg day, baseline 39), 30; with PMM2-CDG patients [1] (P6, 12 months, 1.5 mg/kg day, baseline 45), 29; in the assay on PMM2-CDG patients [1] (P6, 18 months, 3 mg/kg day, baseline 45), 27. The “ataxia (modified BARS scores)” value in the assay with PMM2-CDG patients [1] (P5, P6, words) is reported as “improvement in ataxia”. The “AT III” value was 0.99 IU/mL in the assay on PMM2-CDG patients [2] (P5, 12 months, 1.5 mg/kg day, baseline 0.88); 0.97 IU/mL in the assay on PMM2-CDG patients [2] (P5, 24 months, 2 mg/kg day, baseline 0.88); 0.39 IU/mL in the assay with PMM2-CDG patients [2] (P6, 18 months, 3 mg/kg day, baseline 0.25); 0.37 IU/mL in the assay on PMM2-CDG patients [2] (P7, 12 months, 1.5 mg/kg day, baseline 0.21). For the same compound, the “coagulation parameters (ATIII)” value in the assay with PMM2-CDG patients [2] (P5-P7, words) is recorded as “improvement”.

Source of the values: patent publication US20260335294A1, “TREATING CONGENITAL DISORDERS OF GLYCOSYLATION” (Mayo Foundation for Medical Education and Research, priority 2022, published 2026).
